Where “and” joins values, the source holds several entries; their conditions need not be identical. Equal values may be shown once.
System: tissue mRNA levels
Assay: Quantitative PCR of tissue gene expression in treated mice
Assay type: in vivo, mouse
Parameters: key to mRNA levels Scap / mRNA levels Insig1 / mRNA levels Ldlr / mRNA levels Mttp / mRNA levels Atgl / mRNA levels Tnfaip2 / mRNA levels Rxra / mRNA levels Srebf1 / mRNA levels Ucp2: mRNA level normalized to ribosomal L32 mRNA (internal control)
Details: for relative mRNA levels SREBP1a, group mean (Mean 2) / relative mRNA levels SREBP2, group mean (Mean 2) / relative mRNA levels SREBP1c, group mean (Mean 2) / relative mRNA levels Srebf-1a / relative mRNA levels Srebf-1c / relative mRNA levels Srebf-2: Figure 6a; for relative mRNA levels SREBP1a, group mean (Mean 2) / relative mRNA levels SREBP2, group mean (Mean 2) / relative mRNA levels SREBP1c, group mean (Mean 2): N=6; for relative mRNA levels SREBP1a, group mean (Mean 2): VEH mean 0.9485; for relative mRNA levels SREBP2, group mean (Mean 2): VEH mean 1.001; for relative mRNA levels SREBP1c, group mean (Mean 2): VEH mean 1.004; for relative mRNA levels Srebf-1a / relative mRNA levels Srebf-1c / relative mRNA levels Srebf-2: relative to VEH
Procedure: Total RNA from cells and tissues was extracted by Trizol (Invitrogen) and reverse-transcribed into cDNA using the prime script RT reagent kit with gDNA eraser (Takara). The mRNA levels were determined using the SYBR-green PCR kit (Takara) with ABIPRISM 7900HT Sequence detector (ABI) according to the manufacturer’s protocol. The quantitative qPCR primers used in this work are listed in Supplementary Table 1. Ribosomal L32 mRNA levels were used as an internal control.

[1] = DIO mice, i.p. 20 mg/kg, 5 weeks
[2] = APC 10mg/kg, individual animals
[3] = APC 20mg/kg, individual animals
[4] = Figure 6c, liver of DIO mice, individual animals

## CC(C)=CCc1cc(C=CC(=O)O)cc(CC=C(C)C)c1O [APC, 3,5-diprenyl-4-hydroxycinnamic acid]
C57 WT mice, one oral dose 20 mg/kg
  mRNA levels of CREB/CRTC2 regulated genes in muscle, brain, spleen, kidney, small intestine, pancreas: did not significantly affect
CRTC2KO mice, Met 200mg/kg or APC-20
  Mean Diff. (Veh. vs. treated; head of the quantity not shown, section just before Figure 7h): -0.1036
DIO and db/db mice, i.p. 20 mg/kg, 5 weeks
  hepatic mRNA levels of G6pc, Pck1 and Pgc-1α: remarkably reduced
DIO mice
  Pgc-1α and Pgc-1β expression in liver, white and brown adipose tissues: significantly reduced
  hepatic mRNA levels of SREBP target genes: reduced
[1]
  liver mRNA levels of Lxra: decreased
  liver mRNA levels of Pparα, Pparγ and Rxrα: little effect
DIO mice, i.p. 5 weeks
  hepatic mRNA levels of Srebp-1a, 1c and 2: significantly decreased
APC 10mg/kg
  relative mRNA levels SREBP1a, group mean (Mean 2): 0.6192
  relative mRNA levels SREBP2, group mean (Mean 2): 0.7198
  relative mRNA levels SREBP1c, group mean (Mean 2): 0.5199
[2]
  relative mRNA levels Srebf-1a: 0.7632 and 0.606 and 0.6752 and 0.5408 and 0.5316 and 0.5987
  relative mRNA levels Srebf-1c: 0.3899 and 0.7333 and 0.3575 and 0.4477 and 0.6292 and 0.5618
  relative mRNA levels Srebf-2: 0.89 and 0.7028 and 0.7151 and 0.6142 and 0.6241 and 0.7725
APC 20mg/kg
  relative mRNA levels SREBP1a, group mean (Mean 2): 0.576
  relative mRNA levels SREBP2, group mean (Mean 2): 0.6534
  relative mRNA levels SREBP1c, group mean (Mean 2): 0.4898
[3]
  relative mRNA levels Srebf-1a: 0.7402 and 0.4743 and 0.5973 and 0.6221 and 0.5888 and 0.4336
  relative mRNA levels Srebf-1c: 0.4905 and 0.5691 and 0.5139 and 0.3623 and 0.4504 and 0.5527
  relative mRNA levels Srebf-2: 0.7803 and 0.8192 and 0.5739 and 0.6729 and 0.5114 and 0.5627
Figure 6c, liver of DIO mice, group mean, Mean of VEH 0.9497
  mRNA levels Pgc-1a, Mean of APC: 0.7169
Figure 6c, liver of DIO mice, group mean, Mean of VEH 0.9581
  mRNA levels Hmgcs, Mean of APC: 0.6963
Figure 6c, liver of DIO mice, group mean, Mean of VEH 0.9596
  mRNA levels Pgc-1b, Mean of APC: 0.6511
Figure 6c, liver of DIO mice, group mean, Mean of VEH 0.9821
  mRNA levels Acl, Mean of APC: 0.5548
Figure 6c, liver of DIO mice, group mean, Mean of VEH 0.983
  mRNA levels Insig1, Mean of APC: 1.256
Figure 6c, liver of DIO mice, group mean, Mean of VEH 0.9914
  mRNA levels Ldlr, Mean of APC: 0.5526
Figure 6c, liver of DIO mice, group mean, Mean of VEH 0.9918
  mRNA levels ApoE, Mean of APC: 0.7552
Figure 6c, liver of DIO mice, group mean, Mean of VEH 0.995
  mRNA levels Acsl1, Mean of APC: 0.6996
Figure 6c, liver of DIO mice, group mean, Mean of VEH 1.003
  mRNA levels Insig2b, Mean of APC: 1.315
Figure 6c, liver of DIO mice, group mean, Mean of VEH 1.007
  mRNA levels Lxra, Mean of APC: 0.5396
Figure 6c, liver of DIO mice, group mean, Mean of VEH 1.031
  mRNA levels Cel, Mean of APC: 2.279
Figure 6c, liver of DIO mice, group mean, Mean of VEH 1.033
  mRNA levels Acc, Mean of APC: 0.6639
Figure 6c, liver of DIO mice, group mean, Mean of VEH 1.034
  mRNA levels Pcsk9, Mean of APC: 0.8062
Figure 6c, liver of DIO mice, group mean, Mean of VEH 1.037
  mRNA levels Cpt1, Mean of APC: 2.106
Figure 6c, liver of DIO mice, group mean, Mean of VEH 1.041
  mRNA levels Mttp, Mean of APC: 0.553
Figure 6c, liver of DIO mice, group mean, Mean of VEH 1.044
  mRNA levels Scd1, Mean of APC: 1.532
Figure 6c, liver of DIO mice, group mean, Mean of VEH 1.051
  mRNA levels Lipg, Mean of APC: 1.548
Figure 6c, liver of DIO mice, group mean, Mean of VEH 1.052
  mRNA levels ApoB, Mean of APC: 0.8089
Figure 6c, liver of DIO mice, group mean, Mean of VEH 1.059
  mRNA levels Hmgcl, Mean of APC: 0.5112
Figure 6c, liver of DIO mice, group mean, Mean of VEH 1.06
  mRNA levels Scap, Mean of APC: 0.7595
Figure 6c, liver of DIO mice, group mean, Mean of VEH 1.072
  mRNA levels Mgll, Mean of APC: 1.87
Figure 6c, liver of DIO mice, group mean, Mean of VEH 1.142
  mRNA levels Fasn, Mean of APC: 0.5649
[4]
  mRNA levels Acc: 0.6012 and 0.6553 (2×) and 0.7255 and 0.7608 and 0.5855
  mRNA levels Acl: 0.303 and 0.3204 and 0.7174 and 0.7065 and 0.7574 and 0.524
  mRNA levels Acsl1: 0.5351 and 0.5673 and 0.8699 and 0.7501 and 0.6417 and 0.8334
  mRNA levels ApoB: 0.8489 and 0.8438 and 0.8351 and 0.7306 and 0.803 and 0.7922
  mRNA levels ApoE: 0.7234 and 0.6714 and 0.8902 and 0.7927 and 0.794 and 0.6594
  mRNA levels Cel: 1.61 and 1.758 and 2.648 and 2.653 and 2.573 and 2.434
  mRNA levels Cpt1: 2.1427 and 2.6 and 2.578 and 1.766 and 1.996 and 1.554
  mRNA levels Fasn: 0.5582 and 0.6145 and 0.8825 and 0.8943 and 0.221 and 0.219
  mRNA levels Hmgcl: 0.8031 and 0.3302 and 0.7226 and 0.5347 and 0.468 and 0.2089
  mRNA levels Hmgcs: 0.6002 and 0.7721 and 0.6122 and 0.7412 and 0.7304 and 0.7219
  mRNA levels Insig1: 1.154 and 1.297 and 1.198 and 1.324 and 1.22 and 1.341
